According to publication PMC3681751, “Identification of a Novel Antimicrobial Peptide from Human Hepatitis B Virus Core Protein Arginine-Rich Domain (ARD)” (PLoS Pathogens, 2013):
Residues, ends and D or L forms follow the SMILES beside them.

Tests used:
[1] = test system: Klebsiella pneumoniae Xen39; experiment: IVIS imaging of infected mice; type: in vivo; details: 10 mg/kg at 1 hour, imaged 4 hours post-inoculation; 10^7 cfu/mouse; n = 5; P<0.01 vs PBS
[2] = test system: HepG2 cells; experiment: Peptide uptake into mammalian cells; type: cell-based, human; details: data not shown
Description: (§1) To set up CFSE cell proliferation assay, 293 cells (human kidney origin) and Vero cells (monkey kidney origin) were resuspended in PBS to a final concentration of 10^6 cells/ml, before incubation with 10 µM CFSE dye (CellTrace CFSE cell proliferation kit, Invitrogen) at 37°C for 10 min. To quench the staining, ice-old culture media were then added and incubated on ice for 5 min. Labeled cells were then pelleted and washed three times by fresh medium containing 10% FBS before seeding into six well plates at a density of 3.3×10^5cells/well. After 20 h, the medium was removed and incubated with fresh medium containing 5, 25 and 100 µM HBc 147-183 for one hour (FITC-labeled ARD peptide had been largely internalized in 10 minutes after the addition of ARD peptides to the medium of HepG2 cells). Forty-eight hours later, cells were harvested and analyzed by flow cytometry (FACSCanto, BD Bioscience).

[3] = test system: K. pneumonia (ATCC 13884); type: cell-based, Klebsiella pneumoniae; details: 3 h at 37°C in phosphate buffer pH 7.2; triplicate
[4] = test system: P. aeruginosa; experiment: SYTOX Green uptake (membrane permeabilization); type: cell-based, Pseudomonas aeruginosa; details: 2 µM peptide; 10^7 CFU, 1 µM SYTOX Green, 37°C, ex 485 nm/em 520 nm
Description: (§2) Briefly, bacteria (10^7 CFU) were prepared and mixed with 1 µM SYTOX Green (Invitrogen) for 15 minutes in the dark. […] Melittin (Sigma), the major toxin of bee venom, was used as a positive control to provide maximal permeabilization.

[5] = test system: Vero cells; experiment: CFSE cell proliferation assay; type: cell-based, monkey; details: 5, 25 and 100 µM for 1 hour; flow cytometry
Description: as §1

[6] = test system: HEK293 cells; experiment: CFSE cell proliferation assay; type: cell-based, human; details: 5, 25 and 100 µM for 1 hour; flow cytometry
Description: as §1

[7] = test system: pSUPER plasmid DNA; experiment: Gel retardation assay (DNA binding); details: 30 minutes at 37°C, 1% agarose gel; N/P = peptide amino nitrogen / DNA phosphate
Description: The proportion between amino nitrogen (NH3 ^+) of HBc147-183 and phosphate (PO4 ^−) of DNA was defined as N/P ratio [35]. Briefly, HBc147-183 was incubated with pSUPER plasmid DNA at different N/P ratio (0, 0.2, 0.4, 0.6, 0.8, 1, 2, 3 and 4) for 30 minutes at 37°C. The mobility of pSUPER plasmid DNA was analyzed by electrophoresis on 1% agarose gel.

[8] = test system: HepG2 cells; experiment: Cytotoxicity, MTT assay; type: cell-based, human; details: 1 hour at 37°C; HBc147-183 at 100 µM, melittin at 3.125 µM; triplicates
Description: (§3) Cytotoxicity was measured for HepG2, Huh7, HEK293, and Vero cells by MTT assay. Cells were seeded at 10^4 cells/well in a 96-well plate and serial dilutions of peptides were added into each well. PBS was used as a negative control and melittin was used as a positive control. After 1 hour of incubation, the medium were replaced by fresh medium containing 10% MTT solution (Promega), and the plate was incubated for 4 hours in 5% CO2 at 37°C. The absorbance at the wavelength of 595 nm was measured by an ELISA reader (Bio-Rad model 680).

[9] = test system: Huh7 cells; experiment: Cytotoxicity, MTT assay; type: cell-based, human; details: 1 hour at 37°C; HBc147-183 at 100 µM, melittin at 3.125 µM; triplicates
Description: as §3

[10] = test system: HEK293 cells; experiment: Cytotoxicity, MTT assay; type: cell-based, human; details: 1 hour at 37°C; HBc147-183 at 100 µM, melittin at 3.125 µM; triplicates
Description: as §3

[11] = test system: ICR mice; experiment: Acute in vivo toxicity; set-up: species or system mouse; details: three-week old male ICR mice, 7 days, n = 5
Description: (§4) Three-week old male ICR mice (19 to 21 g) were purchased from BioLASCO (Taiwan). Overnight culture of bacteria in BHI broth (Difco) was subcultured in fresh BHI broth to log phase. Inoculums were diluted in BHI broth to indicated densities. To test the acute toxicity of ARD peptide in vivo, ICR male mice were inoculated intraperitoneally (i.p.) with 10 and 20 mg/kg HBc147-183 in PBS, respectively. Each group contained 5 mice. After peptide injection, the number of dead mice was recorded daily for 7 days post-injection. To test the antimicrobial activity of the ARD peptide in vivo, all mice were inoculated i.p. with Staphylococcus aureus ATCC 19636 (4×10^6 CFU/mouse) in BHI broth. Peptide HBc147-183 (10 mg/kg) was administered i.p. at 1, 1.5 and 2 hours post-inoculation. PBS (10 ml/kg) control was administered at 1 hour post-inoculation. […] Mortality was monitored daily for 7 days post-inoculation. […] The mice were anesthetized first before transferring to the IVIS imaging system (IVIS spectrum), and luminescence was measured with an exposure time of 1 minutes or less. The image system measured the number of photons and translated the data to false color images that depicted the region of strong luminescence with red, moderate luminescence with yellow and green, and mild luminescence with blue. […] Total flux (RLU) of region of interest (ROI) was quantified by the IVIS imaging software.

[12] = test system: S. aureus; experiment: SYTOX Green uptake (membrane permeabilization); type: cell-based, Staphylococcus aureus; details: 4 µM peptide; 10^7 CFU, 1 µM SYTOX Green, 37°C
Description: as §2

[13] = test system: Staphylococcus aureus ATCC 19636; experiment: Bacterial load in infected mice; type: in vivo, mouse; details: 10 mg/kg i.p. at 1 hour, sampled 4 hours post-inoculation, n = 5
Description: as §4

CC(C)[C@H](NC(=O)[C@@H](NC(=O)[C@@H](N)[C@@H](C)O)C(C)C)C(=O)N[C@@H](CCCNC(=N)N)C(=O)N[C@@H](CCCNC(=N)N)C(=O)N[C@@H](CCCNC(=N)N)C(=O)NCC(=O)N[C@@H](CCCNC(=N)N)C(=O)N[C@@H](CO)C(=O)N1CCC[C@H]1C(=O)N[C@@H](CCCNC(=N)N)C(=O)N[C@@H](CCCNC(=N)N)C(=O)N[C@@H](CCCNC(=N)N)C(=O)N[C@H](C(=O)N1CCC[C@H]1C(=O)N[C@@H](CO)C(=O)N1CCC[C@H]1C(=O)N[C@@H](CCCNC(=N)N)C(=O)N[C@@H](CCCNC(=N)N)C(=O)N[C@@H](CCCNC(=N)N)C(=O)N[C@@H](CCCNC(=N)N)C(=O)N[C@@H](CO)C(=O)N[C@@H](CCC(N)=O)C(=O)N[C@@H](CO)C(=O)N1CCC[C@H]1C(=O)N[C@@H](CCCNC(=N)N)C(=O)N[C@@H](CCCNC(=N)N)C(=O)N[C@@H](CCCNC(=N)N)C(=O)N[C@@H](CCCNC(=N)N)C(=O)N[C@@H](CO)C(=O)N[C@@H](CCC(N)=O)C(=O)N[C@@H](CO)C(=O)N[C@@H](CCCNC(=N)N)C(=O)N[C@@H](CCC(=O)O)C(=O)N[C@@H](CO)C(=O)N[C@@H](CCC(N)=O)C(=O)N[C@@H](CS)C(=O)O)[C@@H](C)O [HBc147-183] (H-TVVRRRGRSPRRRTPSPRRRRSQSPRRRRSQSRESQC-OH; N-terminus and C-terminus assumed)
Bioluminescence of infected mice [1]: very weak
Penetration through the cell membrane [2]: can penetrate through the cell membrane
Antimicrobial activity, MBC [3]: 9.18 µg/mL
Membrane permeabilization (SYTOX Green uptake) [4]: significant degree of membrane permeabilization
Effect on cell proliferation (CFSE intensity, day 3 vs mock) [5]: no significant effect
Effect on cell proliferation (CFSE intensity, day 3 vs mock) [6]: no significant effect
N/P ratio at which plasmid DNA was completely retarded [7]: 1
Cell viability / cytotoxicity (MTT) [8]: low level of cytotoxicity
Cell viability / cytotoxicity (MTT) [9]: low level of cytotoxicity
Cell viability / cytotoxicity (MTT) [10]: low level of cytotoxicity
Survival after peptide injection (in vivo toxicity) ([11]; 10 mg/kg i.p.): All mice were alive
Survival after peptide injection (in vivo toxicity) ([11]; 20 mg/kg i.p.): All mice were alive
Membrane permeabilization (SYTOX Green uptake) [12]: not able to induce membrane permeabilization
Bacterial load in blood, liver and spleen [13]: ~10^4 cfu/ml
Reduction of bacterial load in blood, liver and spleen vs PBS control ([13]; P<0.01): 100 fold
